In patent publication US7312358B2, “Pharmaceutically active sulfanilide derivatives” (Laboratoires Serono SA, priority 2000, dated 2007):

Molecular target: T1, ratOT-R (Rattus norvegicus, UniProt P70536)
T1 construct: expressed in transfected cells; host or cells: HEK/EBNA cells
T1 sequence (P70536 1-388): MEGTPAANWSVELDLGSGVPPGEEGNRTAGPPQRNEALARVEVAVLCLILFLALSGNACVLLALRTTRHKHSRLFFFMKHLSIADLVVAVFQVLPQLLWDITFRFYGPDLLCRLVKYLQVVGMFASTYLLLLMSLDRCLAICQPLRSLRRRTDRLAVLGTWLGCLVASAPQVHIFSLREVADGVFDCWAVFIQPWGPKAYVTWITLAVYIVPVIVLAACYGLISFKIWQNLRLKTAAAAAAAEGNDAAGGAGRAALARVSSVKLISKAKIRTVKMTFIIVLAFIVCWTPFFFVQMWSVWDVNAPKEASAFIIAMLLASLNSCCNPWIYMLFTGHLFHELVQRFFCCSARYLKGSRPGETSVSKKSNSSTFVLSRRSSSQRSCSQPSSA
Assay: Inhibition of IP3 (inositol tri-phosphate)-synthesis in HEK/EBNA-OTR cells
Assay type: cell-based
Conditions: [3H]-inositol, oxytocin 10 nM
Protocol: e) Functional Assay No. 2: Inhibition of IP3 (Inositol Tri-Phosphate)-Synthesis in HEK/EBNA-OTR Cells
This assay intends to show the inhibition of the OT/OT-R mediated IP3 synthesis—being necessary to cause uterine contractions—by using test compounds of formula (I).
Stimulation of the cells: IIEK/EBNA OTR(rat or human) cells were plated out into costar 12-well plates, and equilibrated for 15-24 h with [^3H]-inositol radiolabel in medium without inositol supplement, with 1% FCS (0.5 ml/well). 4 μCi/ml were used. After this, the medium containing the label was aspirated. Then was added DMEM (without FCS, inositol), 20 mM Hepes (4-(2-hydroxyethyl)-1-piperazine-ethane-sulphonic acid), 1 mg/ml BSA containing 10 mM LiCl (freshly prepared), for […] at 37° C. The agonist (i.e. oxytocin used at a concentration of 10 nM) and the antagonists (i.e. the tests compounds of formula (1) used in a concentration of 10 μM, 1 μM, 300 nM, 100 nM, 10 nM, 1 nM, 100 pM, 10 pM, 3 pM) were added for the time required (15-45 min), followed by aspiration of the medium. Due to the […] of the OT receptor, the radiolabeled inositol is phosphorylated to yield IP3, the amount of the radiolabeled IP3 may be determined through the ensuing work-up. The reaction was stopped with 1 ml STOP-solution (i.e. 0.4 M perchloric acid), and let sit for 5-10 min at Room Temperature. Then, 0.8 ml were transferred into tubes containing 0.4 ml of neutralizing solution (0.72 M KOH/0.6M KHCO3), and the tubes vortexed and kept in the cold at least for 2 h.
Separation of IP's: The samples were spun in a table top centrifuge at 3000-4000 rpm for 15 min. 1 ml of the supernatant was transferred to new tubes containing 2.5 ml H2O. Packed resin (0.8 ml) was equilibrated with 20 ml H2O, and the whole samples poured onto the chromatography columns, thus separating the mixture. To discard free inositol, two washes with 10 ml H2O were carried out.
Elution of total IP's: The elution was achieved using 3 ml 1M ammonium formate/0.1M formic acid. The eluant was collected in scintillation counting tubes, followed by addition of 7 ml of scintillation liquid. The amount of IP3 is determined by a scintillating counter.
The activities of the sulfanilide derivatives claimed in the formula I were assessed using the above described in vitro biological assay. The values refer to the capacity of the example compounds according to formula I to effectively antagonize oxytocin-induced IP3-synthesis mediated by the oxytocin receptor.

## CCOc1ccc(S(=O)(=O)N(CC(=O)N/N=C2/C(=O)Nc3ccccc32)c2ccc(C)cc2)cc1 [Example 5, 4-ethoxy-N-(4-methylphenyl)-N-{2-oxo-2-[2-(2-oxo-1,2-dihydro-3H-indol-3-ylidene)hydrazino]ethyl}benzenesulfonamide]
  IC50: 13 nM
